Positions of bridges follow the written chain, without caps; N, C: chain ends. No end group written: not given here.
Key:
[1] = target: T1, rASIC1b C208Q/N324K (CN/QK) (Rattus norvegicus, UniProt P55926, C208Q/N291K); test: TEVC oocytes, rASIC1b double mutant CN/QK; assay type: cell-based
T1 construct: expressed in transfected cells; host or cells: Xenopus laevis oocytes injected with cRNA
T1 sequence (P55926 1-559 isoform P55926-3 C208Q/N324K): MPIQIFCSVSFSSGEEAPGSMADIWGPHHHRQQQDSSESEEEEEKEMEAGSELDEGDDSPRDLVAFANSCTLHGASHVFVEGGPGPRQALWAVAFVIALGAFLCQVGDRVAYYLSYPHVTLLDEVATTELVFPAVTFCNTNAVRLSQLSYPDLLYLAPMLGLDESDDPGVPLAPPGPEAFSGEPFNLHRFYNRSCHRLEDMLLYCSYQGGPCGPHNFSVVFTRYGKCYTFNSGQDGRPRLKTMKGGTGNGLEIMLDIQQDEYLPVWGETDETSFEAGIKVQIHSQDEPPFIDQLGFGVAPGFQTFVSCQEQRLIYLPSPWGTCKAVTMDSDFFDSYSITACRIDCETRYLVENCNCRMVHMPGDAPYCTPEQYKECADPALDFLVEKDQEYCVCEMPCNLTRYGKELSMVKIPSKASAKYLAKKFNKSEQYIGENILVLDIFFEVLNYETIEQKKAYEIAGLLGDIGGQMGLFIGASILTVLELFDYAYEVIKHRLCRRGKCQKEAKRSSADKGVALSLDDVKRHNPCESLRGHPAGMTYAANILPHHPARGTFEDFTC
Procedure: (§1) Two-electrode voltage-clamp (TEVC) experiments using Xenopus laevis oocytes were conducted as previously described. Briefly, oocytes were surgically removed from anaesthetised female frogs, then treated with collagenase (~ 1 mg/ml, Sigma type I) for 2 h under agitation at room temperature. cRNAs were synthesised using a mMessage mMachine T7 or SP6 transcription kit (Thermo Fisher Scientific Australia Pty Ltd, Scoresby, VIC, Australia) and injected into healthy stage V–VI oocytes at 0.2–20 ng per cell. […] Membrane currents were recorded 2–7 days after cRNA-injection under voltage-clamp at -60 mV (Axon Axoclamp 900 A, Molecular Devices, CA, USA) using two standard glass microelectrodes of 0.5–1 MΩ resistance when filled with 3 M KCl solution. […]
(§2) Specific to this work, the standard protocol was for oocytes to be conditioned at pH 7.45 and channels stimulated every 60 s using a 5 s pH 5 or 6 application, unless stated otherwise. […] Activation curves were determined by conditioning oocytes at pH 8 (Fig. 2e − g; and Fig. 5a and b) or 7.45 (Fig. 6; and Supplementary Fig. 2d and c) for 55 s and applying low pH stimuli from 7.25 to 5.0 for 5 s. Steady-state desensitisation (SSD) was determined by applying conditioning solutions of pH values from 8 to 6 for 115 s prior to stimulation by a pH drop to 5 for 5 s. […] Control pH-dependence curves were determined in the absence of any Ma-3. […]

[2] = tested on: rASIC1a: rASIC1b chimera C92; test: TEVC oocytes, rASIC1a: rASIC1b chimera C92; assay type: cell-based, rat; conditions: conditioning pH 7.45, stimulating pH 5
Procedure: as §1, §2

[3] = tested on: rASIC1a: rASIC1b chimera C166; test: TEVC oocytes, rASIC1a: rASIC1b chimera C166; assay type: cell-based, rat; conditions: conditioning pH 7.45, stimulating pH 5
Procedure: as §1, §2

## H-SLKCYQHGKVVTCHRDMKFCYHNIGMPFRNLKLILQGCSSSCSETENNKCCSTDRCNK (disulfide 4-20, 13-38, 42-50, 51-56 (inferred)) [Ma-3, mambalgin-3]
[1]; 300 nM Ma-3, conditioning pH 7.45, Hill fit, n = 5–6
  pH50 of activation in presence of Ma-3: 6.29
[1]; conditioning pH 7.45, pH 6 evoked currents, potentiation, 95% CI
  Hill slope (95% CI): 0.69–2.48
[2]
  activity of 300 nM Ma-3: only partially inhibited
[3]
  activity of 300 nM Ma-3: inhibited a greater proportion of current

— paper PMC11335189, “Revealing molecular determinants governing mambalgin-3 pharmacology at acid-sensing ion channel 1 variants” (Cellular and Molecular Life Sciences: CMLS, 2024)
